This note sets out measurements from patent publication US10172946B2, “Monodisperse glycogen and phytoglycogen nanoparticles and use thereof as additives in cosmetics, pharmaceuticals, and food products” (Mirexus Biotechnologies Inc., priority 2013, dated 2019).

The nature of this series: Photostability of phytoglycogen-ethyl-4-aminocinnamate conjugate versus aminocinnamate. Particulars: after 4 h of exposure to UV-irradiation, thin film. Format: physicochemical. As for the experimental part:
Aminocinnamate and a phytoglycogen-ethyl-4-aminocinnamate conjugate were dissolved in ethanol or in water, respectively.
Solutions were deposited as thin films onto a quartz plate and dried in air for 30 min. After drying, the samples were irradiated with UV light, as in Example 11, for 4 h and then tested for their photostability.
Photodegradation was calculated from the decrease in the maximum absorption of the respective products.

Each structure is given as a SMILES string.

As for `CCOC(=O)C=Cc1ccc(N)cc1` [aminocinnamate, ethyl 4-aminocinnamate], the maximum absorbance retained is listed as 40%.
